Measured values reported in PMC8348562, “Potential Assessment of UGT2B17 Inhibition by Salicylic Acid in Human Supersomes In Vitro” (Molecules, 2021).

T1: UGT2B17 (Homo sapiens, UniProt O75795)
T1 construct: recombinant human UGT2B17 supersomes (insect cells infected with baculovirus)
T1 sequence (O75795 24-530): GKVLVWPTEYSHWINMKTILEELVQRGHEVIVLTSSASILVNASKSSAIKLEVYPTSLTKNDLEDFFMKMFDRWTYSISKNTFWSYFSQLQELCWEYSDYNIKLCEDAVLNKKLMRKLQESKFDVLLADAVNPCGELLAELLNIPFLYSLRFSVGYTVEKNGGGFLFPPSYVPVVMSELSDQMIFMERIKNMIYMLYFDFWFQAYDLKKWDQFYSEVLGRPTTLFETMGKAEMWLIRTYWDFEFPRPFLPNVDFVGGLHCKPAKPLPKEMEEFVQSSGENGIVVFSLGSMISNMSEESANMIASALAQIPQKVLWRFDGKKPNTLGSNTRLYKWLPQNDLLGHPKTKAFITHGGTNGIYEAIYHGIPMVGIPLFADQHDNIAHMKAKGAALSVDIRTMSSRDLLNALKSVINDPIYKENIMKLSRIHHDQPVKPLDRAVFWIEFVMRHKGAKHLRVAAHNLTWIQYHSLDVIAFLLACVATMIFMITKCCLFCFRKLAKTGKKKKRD


Columns and labels:
UGT2B17 = biological target: T1, UGT2B17; test: HPLC testosterone glucuronidation assay in recombinant supersomes, Lineweaver-Burk analysis at […] salicylic acid; format: biochemical
purified protein = substrate: C[C@]12CC[C@H]3[C@@H](CCC4=CC(=O)CC[C@@]43C)[C@@H]1CC[C@@H]2O; test: purified protein; conditions: UDPGA; MgCl2

Row | Molecule | inhibition mode (UGT2B17) | Km (purified protein) [µM]
1 | O=C(O)c1ccccc1O [salicylic acid] | UGT2B17 enzyme activity was inhibited uncompetitively by salicylic acid based on the in vitro inhibition study in human supersomes | 
2 | UGT2B17 (Homo sapiens) (protein) GKVLVWPTEYSHWINMKTILEELVQRGHEVIVLTSSASILVNASKSSAIKLEVYPTSLTKNDLEDFFMKMFDRWTYSISKNTFWSYFSQLQELCWEYSDYNIKLCEDAVLNKKLMRKLQESKFDVLLADAVNPCGELLAELLNIPFLYSLRFSVGYTVEKNGGGFLFPPSYVPVVMSELSDQMIFMERIKNMIYMLYFDFWFQAYDLKKWDQFYSEVLGRPTTLFETMGKAEMWLIRTYWDFEFPRPFLPNVDFVGGLHCKPAKPLPKEMEEFVQSSGENGIVVFSLGSMISNMSEESANMIASALAQIPQKVLWRFDGKKPNTLGSNTRLYKWLPQNDLLGHPKTKAFITHGGTNGIYEAIYHGIPMVGIPLFADQHDNIAHMKAKGAALSVDIRTMSSRDLLNALKSVINDPIYKENIMKLSRIHHDQPVKPLDRAVFWIEFVMRHKGAKHLRVAAHNLTWIQYHSLDVIAFLLACVATMIFMITKCCLFCFRKLAKTGKKKKRD |  | 259.74
